# Reference: US20260184675A1, “CHIRAL ISOMERIC SULFITE COMPOUND AND APPLICATION THEREOF” (Chengdu Hanova BioSciences Co., Ltd, priority 2024, published 2026)
# Several values for one entry are separate records, joined by “and”; a condition that tells them apart may be missing. Identical values can stand only once.
# How the values were obtained:
# [1] = tested on: eggs of Harmonia axyridis; assay: Effect on hatching of eggs of Harmonia axyridis, egg card immersion; assay type: in vivo; details: 100 ppm; for Number of hatched larvae 4 days after insecticide delivery, Replicate 1 / Number of hatched larvae 4 days after insecticide delivery, Replicate 2 / Number of hatched larvae 4 days after insecticide delivery, Replicate 3: Harmonia axyridis egg cards, immersed 30 seconds; for Hatching rate (%), Replicate 1 / Hatching rate (%), Replicate 2 / Hatching rate (%), Replicate 3: Harmonia axyridis eggs, 4 days after delivery
# How it was run: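 Egg cards (~20 eggs each) dipped 30 s in 100 ppm insecticide, air dried and kept moist at 27° C; 5 cards per treatment, 3 replicates. Hatching assessed 4 days after treatment against pre-treatment egg counts, and control effect calculated by formula.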
# Magnaporthe grisea = assay type: cell-based; details: 100 ppm; for Average antifungal rate (%) / Antifungal rate of Magnaporthe grisea (%), Replicate 1 / Antifungal rate of Magnaporthe grisea (%), Replicate 2 / Antifungal rate of Magnaporthe grisea (%), Replicate 3: 96-well plate; for Average antifungal rate (%): average of 3 replicates
# [2] = tested on: eggs of Tetranychus urticae; assay: Effect on hatching of eggs of Tetranychus urticae, leaf disc method; assay type: in vivo; details: 5 ppm; for Hatching rate (%): 5 days after insecticide delivery
# How it was run: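 This leaf disc test measured inhibition of Tetranychus urticae egg hatching. Eggs laid on Vicia faba discs were counted microscopically, and the discs were soaked for 10 seconds in compound at 5 ppm, with clear water as control. They were incubated under controlled temperature and humidity with strong indirect light, avoiding condensate. Hatched eggs, leaf damage and developmental abnormalities were recorded five days after delivery.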
# eggs of Aleyrodidae = assay: Effect on hatching of eggs of Aleyrodidae, leaf disc method; assay type: in vivo; details: 10 ppm; for Hatching rate (%), Replicate 1 / Hatching rate (%), Replicate 2 / Hatching rate (%), Replicate 3 / Number of hatched larvae 5 days after insecticide delivery, Replicate 1 / Number of hatched larvae 5 days after insecticide delivery, Replicate 2 / Number of hatched larvae 5 days after insecticide delivery, Replicate 3: Aleyrodidae eggs; for Hatching rate (%), Replicate 1 / Hatching rate (%), Replicate 2 / Hatching rate (%), Replicate 3: 5 days after delivery; for Number of hatched larvae 5 days after insecticide delivery, Replicate 1 / Number of hatched larvae 5 days after insecticide delivery, Replicate 2 / Number of hatched larvae 5 days after insecticide delivery, Replicate 3: leaf disc
# How it was run: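 Leaf discs carrying Aleyrodidae eggs were first examined microscopically to record a baseline egg count. They were then dipped for 10 seconds in compound solution at 10 ppm or in clear water, taken out, and incubated with humidity maintained. Five days after delivery, the number of hatched larvae was recorded to assess hatching inhibition.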
# eggs of Thrips = assay: Effect on hatching of eggs of Thrips, leaf disc method; assay type: in vivo; details: 100 ppm; for Hatching rate (%): 5 days after insecticide delivery
# How it was run: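 Egg-bearing Vicia faba leaf discs (diameter 2.0 cm, wetted filter paper beneath) were counted microscopically for baseline eggs. They were then soaked for 10 seconds in water or in test agent at 100 ppm. After moist incubation in lidded dishes, with controlled temperature and humidity and adequate indirect light, hatched larvae were counted five days post-delivery to judge hatching inhibition.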
Structure (SMILES),"Number of hatched larvae 4 days after insecticide delivery, Replicate 1 [1]","Number of hatched larvae 4 days after insecticide delivery, Replicate 2 [1]","Number of hatched larvae 4 days after insecticide delivery, Replicate 3 [1]","Hatching rate (%), Replicate 1 [1] [%]","Hatching rate (%), Replicate 2 [1] [%]","Hatching rate (%), Replicate 3 [1] [%]",inhibitory rate against Magnaporthe grisea (in words) (Magnaporthe grisea),Average antifungal rate (%) (Magnaporthe grisea),"Antifungal rate of Magnaporthe grisea (%), Replicate 1 (Magnaporthe grisea) [%]","Antifungal rate of Magnaporthe grisea (%), Replicate 2 (Magnaporthe grisea) [%]","Antifungal rate of Magnaporthe grisea (%), Replicate 3 (Magnaporthe grisea) [%]",Hatching rate (%) ([2]; Replicate 1),Hatching rate (%) ([2]; Replicate 2),Number of hatched larvae 5 days after insecticide delivery ([2]; Replicate 1),Number of hatched larvae 5 days after insecticide delivery ([2]; Replicate 2),"Hatching rate (%), Replicate 1 (eggs of Aleyrodidae) [%]","Hatching rate (%), Replicate 2 (eggs of Aleyrodidae) [%]","Hatching rate (%), Replicate 3 (eggs of Aleyrodidae) [%]","Number of hatched larvae 5 days after insecticide delivery, Replicate 1 (eggs of Aleyrodidae)","Number of hatched larvae 5 days after insecticide delivery, Replicate 2 (eggs of Aleyrodidae)",also measured
"CC[C@@H](COc1ccc(Cl)cc1Cl)OS(=O)OCCF (stereo partly drawn) [19-(S,R)]",0,0,0,0.00,0.00,0.00,strong inhibitory rate,99.77%,100.10,99.34,99.87,0.00,0.00,0,0,0.00,0.00,0.00,0,0,"inhibitory activity on the hatching of eggs of Harmonia axyridis (in words) [1]: strong inhibitory activities; inhibitory activity on the hatching of eggs of Tetranychus urticae (in words) [2]: strong inhibitory activities; inhibitory activity on the hatching of eggs of Aleyrodidae (in words) (eggs of Aleyrodidae): strong inhibitory activities; Number of hatched larvae 5 days after insecticide delivery, Replicate 3 (eggs of Aleyrodidae): 0; inhibitory activity on the hatching of eggs of Thrips (in words) (eggs of Thrips): strong inhibitory activities; Hatching rate (%) (eggs of Thrips; Replicate 1): 0.00%; Hatching rate (%) (eggs of Thrips; Replicate 2): 0.00%; Hatching rate (%) (eggs of Thrips; Replicate 3): 0.00%; Number of hatched larvae 5 days after insecticide delivery (eggs of Thrips; Replicate 1): 0; Number of hatched larvae 5 days after insecticide delivery (eggs of Thrips; Replicate 2): 0; Number of hatched larvae 5 days after insecticide delivery (eggs of Thrips; Replicate 3): 0"
"CC[C@H](COS(=O)OCCF)Oc1ccc(Cl)cc1Cl (stereo partly drawn) [19′-(R,S)]",11,10,9,10.28,10.53,9.78,strong inhibitory rate,97.19% and 86.12%,85.69,86.41,86.27,12.66,13.25,10,11,10.32,9.40,11.49,13,11,"Number of hatched larvae 5 days after insecticide delivery, Replicate 3 (eggs of Aleyrodidae): 10; Hatching rate (%) (eggs of Thrips; Replicate 1): 9.02%; Hatching rate (%) (eggs of Thrips; Replicate 2): 9.18%; Hatching rate (%) (eggs of Thrips; Replicate 3): 8.74%; Number of hatched larvae 5 days after insecticide delivery (eggs of Thrips; Replicate 1): 12; Number of hatched larvae 5 days after insecticide delivery (eggs of Thrips; Replicate 2): 9; Number of hatched larvae 5 days after insecticide delivery (eggs of Thrips; Replicate 3): 9"
